Source: patent US20200017496A1 (priority 2017, published 2020)

Experiments:
Type in all cases: cell-based
[1] = tested on: Proteus mirabilis (PMI) isolates; assay: microbe, parasite or virus in culture; details: AF1 @ 4 μg/mL
Method in brief: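 Log-phase isolates at final 5·10^5 CFU/mL in cation-adjusted Mueller-Hinton broth, incubated 16-20 h at 35° C in ambient air. MIC read visually as lowest concentration preventing growth, for compound alone and for antibacterial at each compound concentration.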

[2] = tested on: Enterobacter cloacae (ECL) isolates; assay: MIC of compounds alone and combined with antibacterials, broth microdilution (CLSI)
Experimental: (§1) Method 2: MIC of Compounds Alone and Combined with Antibacterials Against Bacterial Isolates.
(§2) Compounds of the present invention were assessed against genotyped bacterial strains (Table 3, 4) alone or in combination with an antibacterial (Table 2). […] Log phase bacterial suspensions were adjusted to a final density of 5·10^5 CFU/mL in cation-adjusted Mueller-Hinton broth (ca-MHB; Becton-Dickinson and Company) and added to each well (98 μL). Microplates were incubated for 16-20 h at 35° C. in ambient air. The MIC of the compounds was defined as the lowest concentration of said compounds that prevented bacterial growth as read by visual inspection. The MIC of ATB at each compound concentration was defined as the lowest concentration of ATB that prevented bacterial growth as read by visual inspection.

[3] = tested on: Escherichia coli (ECO) isolates; assay: as above; details: AF1 @ 4 μg/mL
Experimental: as §1, §2

[4] = tested on: Salmonella typhimurium (STY) isolates; assay: as above; details: STY S3371; AF1 @ 4 μg/mL
Experimental: as §1, §2

## C=CC1=C(C(=O)O)N2C(=O)[C@@H](NC(=O)/C(=N\O)c3csc(N)n3)[C@H]2SC1 [CDR, Cefdinir]
[1]; PMI UFR82
  MIC ATB in combination: 0.5 µg/mL
[1]; PMI UFR120
  MIC ATB in combination: <=0.25 μg/mL
[1]; PMI UFR121
  MIC ATB in combination: <=0.25 μg/mL
[1]; PMI UFR122
  MIC ATB in combination: <=0.25 μg/mL
[1]; PMI UFR123
  MIC ATB in combination: <=0.25 μg/mL
[1]; PMI UFR124
  MIC ATB in combination: <=0.25 μg/mL
[1]; PMI UFR125
  MIC ATB in combination: <=0.25 μg/mL
[1]; PMI UFR126
  MIC ATB in combination: <=0.25 μg/mL
[1]; PMI UFR127
  MIC ATB in combination: <=0.25 μg/mL
[1]; PMI UFR129
  MIC ATB in combination: <=0.25 μg/mL
[1]; PMI UFR130
  MIC ATB in combination: <=0.25 μg/mL
[1]; PMI UFR237
  MIC ATB in combination: <=0.25 μg/mL
[2]; ECL 190310, AF1 @ 4 μg/mL
  MIC ATB in combination: 64 µg/mL
[2]; ECL 190408, AF1 @ 4 μg/mL
  MIC ATB in combination: <=0.25 μg/mL
[2]; ECL 200138, AF1 @ 4 μg/mL
  MIC ATB in combination: 64 µg/mL
[2]; ECL 200322, AF1 @ 4 μg/mL
  MIC ATB in combination: 4 µg/mL
[2]; ECL 260253, AF1 @ 4 μg/mL
  MIC ATB in combination: 32 µg/mL
[2]; ECL 260323, AF1 @ 4 μg/mL
  MIC ATB in combination: 64 µg/mL
[2]; ECL 260508, AF1 @ 4 μg/mL
  MIC ATB in combination: 2 µg/mL
[2]; ECL NEM146383, AF1 @ 4 μg/mL
  MIC ATB in combination: 32 µg/mL
[2]; ECL P99, AF1 @ 4 μg/mL
  MIC ATB in combination: 16 µg/mL
[2]; ECL UFR12, AF1 @ 4 μg/mL
  MIC ATB in combination: 4 µg/mL
[2]; ECL UFR13, AF1 @ 4 μg/mL
  MIC ATB in combination: 16 µg/mL
[2]; ECL UFR14, AF1 @ 4 μg/mL
  MIC ATB in combination: 32 µg/mL
[2]; ECL UFR60, AF1 @ 4 μg/mL
  MIC ATB in combination: 8 µg/mL
[2]; ECL UFR70, AF1 @ 4 μg/mL
  MIC ATB in combination: 4 µg/mL
[2]; ECL UFR84, AF1 @ 4 μg/mL
  MIC ATB in combination: 64 µg/mL
[2]; ECL UFR85, AF1 @ 4 μg/mL
  MIC ATB in combination: 8 µg/mL
[2]; ECL UFR194, AF1 @ 4 μg/mL
  MIC ATB in combination: 2 µg/mL
[2]; ECL UFR200, AF1 @ 4 μg/mL
  MIC ATB in combination: 2 µg/mL
[2]; strain ECL UFR195, antibacterial combined with AF1 @ 4 μg/mL
  MIC ATB in combination: 4 µg/mL
[2]; strain ECL UFR196, antibacterial combined with AF1 @ 4 μg/mL
  MIC ATB in combination: 16 µg/mL
[2]; strain ECL UFR197, antibacterial combined with AF1 @ 4 μg/mL
  MIC ATB in combination: 8 µg/mL
[2]; strain ECL UFR198, antibacterial combined with AF1 @ 4 μg/mL
  MIC ATB in combination: 32 µg/mL
[3]; ECO 4133
  MIC ATB in combination: <=0.25 μg/mL
[3]; ECO 5302
  MIC ATB in combination: <=0.25 μg/mL
[3]; ECO 131119
  MIC ATB in combination: <=0.25 μg/mL
[3]; ECO 180070
  MIC ATB in combination: <=0.25 μg/mL
[3]; ECO 190314
  MIC ATB in combination: <=0.25 μg/mL
[3]; ECO 190317
  MIC ATB in combination: <=0.25 μg/mL
[3]; ECO 190457
  MIC ATB in combination: <=0.25 μg/mL
[3]; ECO 190549
  MIC ATB in combination: <=0.25 μg/mL
[3]; ECO 200159
  MIC ATB in combination: <=0.25 μg/mL
[3]; ECO 200259
  MIC ATB in combination: <=0.25 μg/mL
[3]; ECO 200344
  MIC ATB in combination: <=0.25 μg/mL
[3]; ECO 260096
  MIC ATB in combination: <=0.25 μg/mL
[3]; ECO 260304
  MIC ATB in combination: <=0.25 μg/mL
[3]; ECO 260508
  MIC ATB in combination: <=0.25 μg/mL
[3]; ECO RGN238
  MIC ATB in combination: <=0.25 μg/mL
[3]; ECO UFR15
  MIC ATB in combination: <=0.25 μg/mL
[3]; ECO UFR16
  MIC ATB in combination: 1 µg/mL
[3]; ECO UFR18
  MIC ATB in combination: 4 µg/mL
[3]; ECO UFR19
  MIC ATB in combination: 2 µg/mL
[3]; ECO UFR20
  MIC ATB in combination: 16 µg/mL
[3]; ECO UFR61O
  MIC ATB in combination: 0.25 µg/mL
[3]; ECO UFR62
  MIC ATB in combination: 0.5 µg/mL
[3]; ECO UFR74
  MIC ATB in combination: 1 µg/mL
[3]; ECO UFR86
  MIC ATB in combination: 1 µg/mL
[3]; ECO UFR174
  MIC ATB in combination: <=0.25 μg/mL
[3]; ECO UFR175
  MIC ATB in combination: 0.5 µg/mL
[3]; ECO UFR176
  MIC ATB in combination: <=0.25 μg/mL
[3]; ECO UFR184
  MIC ATB in combination: 16 µg/mL
[3]; ECO UFR186
  MIC ATB in combination: 1 µg/mL
[3]; ECO UFR187
  MIC ATB in combination: 0.5 µg/mL
[3]; ECO UFR189
  MIC ATB in combination: <=0.25 μg/mL
[3]; ECO UFR190
  MIC ATB in combination: 0.5 µg/mL
[3]; ECO UFR191
  MIC ATB in combination: 1 µg/mL
[3]; ECO UFR207
  MIC ATB in combination: <=0.25 μg/mL
[3]; ECO UFR209
  MIC ATB in combination: <=0.25 μg/mL
[3]; ECO UFR210
  MIC ATB in combination: <=0.25 μg/mL
[3]; ECO UFR211
  MIC ATB in combination: <=0.25 μg/mL
[3]; ECO UFR212
  MIC ATB in combination: 32 µg/mL
[3]; ECO UFR218
  MIC ATB in combination: <=0.25 μg/mL
[4]
  MIC ATB in combination: <=0.25 μg/mL
